Assay results taken from US20220125765A1, “PHARMACEUTICAL COMBINATIONS COMPRISING MEBENDAZOLE AND A STRONG OR MODERATE CYP1A2 INHIBITOR” (ZEPHAPHARM LTD, priority 2019, published 2022).
Like-named read-outs stand apart in the source and are kept apart here.

Experiments:
SXFS U-2197 = assay: 2D monolayer CellTiter-Blue viability, soft tissue sarcoma U-2197; assay type: cell-based; conditions: 72 h
Experimental: (§1) Seventeen compounds, including mebendazole (Batch no. […] Efficacy of compounds was assessed using CellTiter-Blue® Cell Viability Assay. Anti-tumor activity is expressed as absolute and relative IC50 and IC70 values, calculated by non-linear regression analysis.

SK-OV-3 = assay: 2D monolayer CellTiter-Blue viability, ovarian cancer SK-OV-3; assay type: cell-based; conditions: for IC50: Homo sapiens; for Test/Control (%) at Drug Concentration: 72 h
Experimental: (§2) Mebendazole was tested in vitro across a panel of 12 tumor cell lines of ovarian and renal cancer by using a 2D monolayer assay. […] OVXF 899L and RXF 486L are P-gp expressing, multidrug resistant cell lines.
(§3) Anti-tumor activity is expressed as absolute and relative IC50/70 values, calculated by 4-parameter non-linear curve fit.

[1] = Stability in human cryopreserved hepatocytes without and with cimetidine or furafylline (Example 5); assay type: in vitro ADME; conditions: human; for hepatocyte CLint at 1 µM: read-out: intrinsic clearance
Experimental: The final incubation volume was 500 μL. Two control compounds were included with each species, alongside appropriate vehicle control.
The samples were analysed for mebendazole or ethoxycoumarin using LC-MS/MS.
The final incubation volume was 500 μL.
A positive control compound, ethoxycoumarin, for CYP1A2 was included. […] The samples were analysed for mebendazole or ethoxycoumarin using LC-MS/MS.

SXFS A-204 = assay: 2D monolayer CellTiter-Blue viability, soft tissue sarcoma A-204; assay type: cell-based; conditions: 72 h
Experimental: as §1

OVXF 899L = assay: 2D monolayer CellTiter-Blue viability, ovarian cancer OVXF 899L (P-gp expressing, multidrug resistant); assay type: cell-based; conditions: for Test/Control (%) at Drug Concentration: 72 h; for IC50: OVXF 899L
Experimental: as §2, §3

NBXF SK-N-AS = assay: 2D monolayer CellTiter-Blue viability, neuroblastoma SK-N-AS; assay type: cell-based; conditions: 72 h
Experimental: as §1

SXFS HT-1080 = assay: 2D monolayer CellTiter-Blue viability, soft tissue sarcoma HT-1080; assay type: cell-based; conditions: 72 h
Experimental: Seventeen compounds, including mebendazole (Batch no. MKCC1885, Sigma-Aldrich, 100% pure), were tested in vitro across a panel of 8 selected neuroblastoma (NBXF) and 13 selected sarcoma (SXF) derived cell lines by using a 2D monolayer assay. Compounds were tested at […] in half-log increments up to 100 μM and cells were treated for a period of 72 hours. Efficacy of compounds was assessed using CellTiter-Blue® Cell Viability Assay. Anti-tumor activity is expressed as absolute and relative IC50 and IC70 values, calculated by non-linear regression analysis.

NBXF KELLY = assay: 2D monolayer CellTiter-Blue viability, neuroblastoma KELLY; assay type: cell-based; conditions: 72 h
Experimental: as §1

IC50 (SK-OV-3; SK-OV-3, 72 h, read-out: Abs. IC50): 1.2 µM
IC50 (SK-OV-3; SK-OV-3, 72 h, read-out: Rel. IC50): 0.476 µM
half-life at 1 μM ([1]; cryopreserved hepatocytes (suspension), in the presence of cimetidine (30-300 μM), read-out: half-life, maximum): ≤ 2.32 h
half-life at 1 μM ([1]; cryopreserved hepatocytes (suspension), substrate 1 μM, no inhibitor, read-out: t1/2): 1.73 h
hepatocyte CLint at 1 µM ([1]; cryopreserved hepatocytes (suspension), with furafylline 10 µM, substrate 1 μM, 10 μM furafylline): 2.43 µL/min/1e6 cells
hepatocyte CLint at 1 µM ([1]; cryopreserved hepatocytes (suspension), with furafylline 30 µM, substrate 1 μM, 30 μM furafylline): 1.47 µL/min/1e6 cells
half-life at 1 μM ([1]; cryopreserved hepatocytes (suspension), with furafylline 3-30 µM (maximum half-life over 3, 10 and 30 µM), in the presence of furafylline (3-30 μM), read-out: half-life, maximum): ≤ 15.7 h
hepatocyte CLint at 1 µM ([1]; cryopreserved hepatocytes, substrate 1 μM, absence of inhibitor (inhibitor experiment)): 13.3 µL/min/1e6 cells
hepatocyte CLint at 1 µM ([1]; cryopreserved hepatocytes, substrate 1 μM, hepatocyte stability investigation (no inhibitor arm)): 19.1 µL/min/1e6 cells
hepatocyte CLint at 1 µM ([1]; cryopreserved hepatocytes, with cimetidine 30 μM, substrate 1 μM, 30 μM cimetidine): 13.2 µL/min/1e6 cells
half-life at 1 μM ([1]; cryopreserved hepatocytes, with cimetidine 30 μM, substrate 1 μM, cimetidine 30 μM, read-out: t1/2): 1.75 h
hepatocyte CLint at 1 µM ([1]; cryopreserved hepatocytes, with cimetidine 100 μM, substrate 1 μM, 100 μM cimetidine): 14.7 µL/min/1e6 cells
half-life at 1 μM ([1]; cryopreserved hepatocytes, with cimetidine 100 μM, substrate 1 μM, cimetidine 100 μM, read-out: t1/2): 1.57 h
hepatocyte CLint at 1 µM ([1]; cryopreserved hepatocytes, with cimetidine 300 μM, substrate 1 μM, 300 μM cimetidine): 9.98 µL/min/1e6 cells
half-life at 1 μM ([1]; cryopreserved hepatocytes, with cimetidine 300 μM, substrate 1 μM, cimetidine 300 μM, read-out: t1/2): 2.32 h
hepatocyte CLint at 1 µM ([1]; cryopreserved hepatocytes, with furafylline 3 μM, substrate 1 μM, 3 μM furafylline): 3.47 µL/min/1e6 cells
half-life at 1 μM ([1]; cryopreserved hepatocytes, with furafylline 3 μM, substrate 1 μM, furafylline 3 μM, read-out: t1/2): 6.65 h
half-life at 1 μM ([1]; cryopreserved hepatocytes, with furafylline 10 μM, substrate 1 μM, furafylline 10 μM, read-out: t1/2): 9.5 h
half-life at 1 μM ([1]; cryopreserved hepatocytes, with furafylline 30 μM, substrate 1 μM, furafylline 30 μM, read-out: t1/2): 15.7 h
IC50 (OVXF 899L; OVXF 899, 72 h, read-out: Abs. IC50): > 3.2 µM
IC50 (OVXF 899L; OVXF 899, 72 h, read-out: Rel. IC50): 0.401 µM
Structure (SMILES): COC(=O)Nc1nc2ccc(C(=O)c3ccccc3)cc2[nH]1 [Mebendazole, methyl N-(6-benzoyl-1H-benzimidazol-2-yl)carbamate]
Test/Control (%) at Drug Concentration (SXFS U-2197; U-2197, 1.0E+00 μM): 42%
Test/Control (%) at Drug Concentration (SXFS U-2197; U-2197, 1.0E+01 μM): 37%
Test/Control (%) at Drug Concentration (SXFS U-2197; U-2197, 1.0E+02 μM): 18%
Test/Control (%) at Drug Concentration (SXFS U-2197; U-2197, 1.0E−01 μM): 91%
Test/Control (%) at Drug Concentration (SXFS U-2197; U-2197, 1.0E−02 μM): 93%
Test/Control (%) at Drug Concentration (SXFS U-2197; U-2197, 3.2E+00 μM): 44%
Test/Control (%) at Drug Concentration (SXFS U-2197; U-2197, 3.2E+01 μM): 36%
Test/Control (%) at Drug Concentration (SXFS U-2197; U-2197, 3.2E−01 μM): 79%
Test/Control (%) at Drug Concentration (SXFS U-2197; U-2197, 3.2E−02 μM): 93%
Test/Control (%) at Drug Concentration (SXFS U-2197; U-2197, 3.2E−03 μM): 93%
Test/Control (%) at Drug Concentration (SK-OV-3; SK-OV-3, 1.0E+00 μM): 52%
Test/Control (%) at Drug Concentration (SK-OV-3; SK-OV-3, 1.0E−01 μM): 99%
Test/Control (%) at Drug Concentration (SK-OV-3; SK-OV-3, 1.0E−02 μM): 98%
Test/Control (%) at Drug Concentration (SK-OV-3; SK-OV-3, 1.0E−03 μM): 100%
Test/Control (%) at Drug Concentration (SK-OV-3; SK-OV-3, 1.0E−04 μM): 94%
Test/Control (%) at Drug Concentration (SK-OV-3; SK-OV-3, 3.2E+00 μM): 45%
Test/Control (%) at Drug Concentration (SK-OV-3; SK-OV-3, 3.2E−01 μM): 84%
Test/Control (%) at Drug Concentration (SK-OV-3; SK-OV-3, 3.2E−02 μM): 102%
Test/Control (%) at Drug Concentration (SK-OV-3; SK-OV-3, 3.2E−03 μM): 101%
Test/Control (%) at Drug Concentration (SK-OV-3; SK-OV-3, 3.2E−04 μM): 104%
Abs. IC70 (SK-OV-3; SK-OV-3, 72 h): >3.200 µM
Rel. IC70 (SK-OV-3; SK-OV-3, 72 h): 0.679 µM
Bot. (%) (SK-OV-3; SK-OV-3, 72 h, curve fit): 44%
Top (%) (SK-OV-3; SK-OV-3, 72 h, curve fit): 100%
Test/Control (%) at Drug Concentration (SXFS A-204; A-204, 1.0E+00 μM): 45%
Test/Control (%) at Drug Concentration (SXFS A-204; A-204, 1.0E+01 μM): 28%
Test/Control (%) at Drug Concentration (SXFS A-204; A-204, 1.0E+02 μM): 10%
Test/Control (%) at Drug Concentration (SXFS A-204; A-204, 1.0E−01 μM): 79%
Test/Control (%) at Drug Concentration (SXFS A-204; A-204, 1.0E−02 μM): 96%
Test/Control (%) at Drug Concentration (SXFS A-204; A-204, 3.2E+00 μM): 35%
Test/Control (%) at Drug Concentration (SXFS A-204; A-204, 3.2E+01 μM): 20%
Test/Control (%) at Drug Concentration (SXFS A-204; A-204, 3.2E−01 μM): 60%
Test/Control (%) at Drug Concentration (SXFS A-204; A-204, 3.2E−02 μM): 83%
Test/Control (%) at Drug Concentration (SXFS A-204; A-204, 3.2E−03 μM): 114%
Test/Control (%) at Drug Concentration (OVXF 899L; OVXF 899, 1.0E+00 μM): 54%
Test/Control (%) at Drug Concentration (OVXF 899L; OVXF 899, 1.0E−01 μM): 92%
Test/Control (%) at Drug Concentration (OVXF 899L; OVXF 899, 1.0E−02 μM): 97%
Test/Control (%) at Drug Concentration (OVXF 899L; OVXF 899, 1.0E−03 μM): 100%
Test/Control (%) at Drug Concentration (OVXF 899L; OVXF 899, 1.0E−04 μM): 88%
Test/Control (%) at Drug Concentration (OVXF 899L; OVXF 899, 3.2E+00 μM): 65%
Test/Control (%) at Drug Concentration (OVXF 899L; OVXF 899, 3.2E−01 μM): 94%
Test/Control (%) at Drug Concentration (OVXF 899L; OVXF 899, 3.2E−02 μM): 94%
Test/Control (%) at Drug Concentration (OVXF 899L; OVXF 899, 3.2E−03 μM): 97%
Test/Control (%) at Drug Concentration (OVXF 899L; OVXF 899, 3.2E−04 μM): 98%
Abs. IC70 (OVXF 899L; OVXF 899, 72 h): >3.200 µM
Rel. IC70 (OVXF 899L; OVXF 899, 72 h): 0.425 µM
Bot. (%) (OVXF 899L; OVXF 899, 72 h, curve fit): 57%
Top (%) (OVXF 899L; OVXF 899, 72 h, curve fit): 95%
Test/Control (%) at Drug Concentration (NBXF SK-N-AS; 1.0E+00 μM): 31%
Test/Control (%) at Drug Concentration (NBXF SK-N-AS; 1.0E+01 μM): 21%
Test/Control (%) at Drug Concentration (NBXF SK-N-AS; 1.0E+02 μM): 8%
Test/Control (%) at Drug Concentration (NBXF SK-N-AS; 1.0E−01 μM): 62%
Test/Control (%) at Drug Concentration (NBXF SK-N-AS; 1.0E−02 μM): 91%
Test/Control (%) at Drug Concentration (NBXF SK-N-AS; 3.2E+00 μM): 28%
Test/Control (%) at Drug Concentration (NBXF SK-N-AS; 3.2E+01 μM): 19%
Test/Control (%) at Drug Concentration (NBXF SK-N-AS; 3.2E−01 μM): 36%
Test/Control (%) at Drug Concentration (NBXF SK-N-AS; 3.2E−02 μM): 84%
Test/Control (%) at Drug Concentration (NBXF SK-N-AS; 3.2E−03 μM): 89%
Test/Control (%) at Drug Concentration (SXFS HT-1080; HT-1080, 1.0E+00 μM): 7%
Test/Control (%) at Drug Concentration (SXFS HT-1080; HT-1080, 1.0E+01 μM): 4%
Test/Control (%) at Drug Concentration (SXFS HT-1080; HT-1080, 1.0E+02 μM): 1%
Test/Control (%) at Drug Concentration (SXFS HT-1080; HT-1080, 1.0E−01 μM): 79%
Test/Control (%) at Drug Concentration (SXFS HT-1080; HT-1080, 1.0E−02 μM): 89%
Test/Control (%) at Drug Concentration (SXFS HT-1080; HT-1080, 3.2E+00 μM): 4%
Test/Control (%) at Drug Concentration (SXFS HT-1080; HT-1080, 3.2E+01 μM): 3%
Test/Control (%) at Drug Concentration (SXFS HT-1080; HT-1080, 3.2E−01 μM): 35%
Test/Control (%) at Drug Concentration (SXFS HT-1080; HT-1080, 3.2E−02 μM): 79%
Test/Control (%) at Drug Concentration (SXFS HT-1080; HT-1080, 3.2E−03 μM): 90%
Test/Control (%) at Drug Concentration (NBXF KELLY; 1.0E+00 μM): 6%
Test/Control (%) at Drug Concentration (NBXF KELLY; 1.0E+01 μM): −1%
Test/Control (%) at Drug Concentration (NBXF KELLY; 1.0E+02 μM): −1%
Test/Control (%) at Drug Concentration (NBXF KELLY; 1.0E−01 μM): 91%
Test/Control (%) at Drug Concentration (NBXF KELLY; 1.0E−02 μM): 99%
Test/Control (%) at Drug Concentration (NBXF KELLY; 3.2E+00 μM): −1%
Test/Control (%) at Drug Concentration (NBXF KELLY; 3.2E+01 μM): −1%
Test/Control (%) at Drug Concentration (NBXF KELLY; 3.2E−01 μM): 75%
Test/Control (%) at Drug Concentration (NBXF KELLY; 3.2E−02 μM): 99%
Test/Control (%) at Drug Concentration (NBXF KELLY; 3.2E−03 μM): 106%
